Laboratory results reported in US12297241B2, “Method to engineer transplantable human tissues” (The Regents of the University of California, priority 2018, dated 2025).

How the values were obtained:
H1 ESC line = experiment: HSV-tk suicide gene killing test with GCV in transduced H1 ESC line; assay type: cell-based, human; details: GCV 10 μM, 5 days
Description: FIGS. 1A-1F: Molecular Sculpting of the Teratoma through miRNAs. (FIG. 1A) Schematic of miRNA-HSV-tk-GFP construct. 2A is gene encoding for a self-cleaving peptide. Upon transcription of construct it will silenced if appropriate endogenously expressed miRNA is present in the cell. (FIG. 1B) Schematic of how developing teratoma should form in the presence of Ganciclovir (GCV, 80 mg/kg/d) if cells were transduced with miRNA-HSV-tk construct. (FIG. 1C) Phase images from light microscopy showing H1 cell survival after 3 and 5 days in the presence of GCV (10 μM). H1 ESC line was either transduced with GFP control (EGIP backbone) or miR-124-HSV-tk-GFP. (FIG. 1D) Fluorescent microscopy and phase images showing HEK293T and HeLA cells transduced with either No GFP control, HSV-tk-GFP, or miR-21-HSV-tk-GFP. (FIG. 1E) Quantification of (FIG. 1D) using flow cytometry and gating based on the presence or absence of GFP. […]
miRNA-HSV-tk constructs were tested in vitro in the H1 ESC line. The functionality of the suicide gene HSV-tk was assessed in the presence of GCV. […] Furthermore, the unique miRNA specificity of the constructs was assessed based on cell type. […]

[1] = tested on: miR-124-HSV-tk teratomas (H1 ESC line); experiment: In vivo enrichment of miR-124-HSV-tk teratomas with intratumoral GCV, scRNA-seq; design: species or system Rag2−/−;γc−/− immunodeficient mice
Description: FIGS. 1A-1F: Molecular Sculpting of the Teratoma through miRNAs. (FIG. 1A) Schematic of miRNA-HSV-tk-GFP construct. 2A is gene encoding for a self-cleaving peptide. Upon transcription of construct it will silenced if appropriate endogenously expressed miRNA is present in the cell. (FIG. 1B) Schematic of how developing teratoma should form in the presence of Ganciclovir (GCV, 80 mg/kg/d) if cells were transduced with miRNA-HSV-tk construct. (FIG. 1C) Phase images from light microscopy showing H1 cell survival after 3 and 5 days in the presence of GCV (10 μM). H1 ESC line was either transduced with GFP control (EGIP backbone) or miR-124-HSV-tk-GFP. (FIG. 1D) Fluorescent microscopy and phase images showing HEK293T and HeLA cells transduced with either No GFP control, HSV-tk-GFP, or miR-21-HSV-tk-GFP. (FIG. 1E) Quantification of (FIG. 1D) using flow cytometry and gating based on the presence or absence of GFP. (FIG. 1F) In vivo studies of miR-124-HSV-tk-GFP teratomas in the presence of GCV administration (80 mg/kg/d) showing cell type fraction log fold-change based on different cell types with accompanying Z-scores compared to miR-124-HSV-tk-GFP teratomas in the absence of GCV.
Applicant then tested the miRNA-HSV-tk constructs in vivo with the goal to grow a teratoma that is enriched for a desired lineage. For this task the miR-124-HSV-tk construct was selected to enrich for the neural lineage. After the H1 ESC line was successfully transduced and selected for the miR-124-HSV-tk construct, cells were subcutaneously injected into Rag2^−/−;γc^−/− immunodeficient mice and allowed to form teratomas as described above. Once teratomas reached a minimum of 1 cm in diameter, intratumoral injections with GCV (80 mg/kg/d) for half to tumors began until they grew an appropriate time for extraction (˜10 weeks).
However, enrichment for foregut was also observed. To the best os Applicant's knowledge, there is no known published literature on miR-124 having a role in foregut development.

[2] = intratumoral GCV 80 mg/kg/d vs tumor without GCV

Nc1nc(O)c2ncn(COC(CO)CO)c2n1 [GCV, ganciclovir]
cell survival in the presence of GCV (H1 ESC line; H1 cells transduced with GFP control (EGIP backbone alone)): unaffected
cell survival in the presence of GCV (H1 ESC line; H1 cells transduced with the miRNA-HSV-tk construct): total cell death
tumor size ([1]; intratumoral GCV 80 mg/kg/d until extraction (~10 weeks) vs tumor without GCV): smaller size
cell types depleted (scRNA-seq) [1, 2]: muscle, retinal pigmented epithelium, and many other cell types
cell-type fraction enriched (scRNA-seq) [1, 2]: early neurons, neuronal progenitors, Schwann cells, and foregut
external heterogeneity of tumor [1, 2]: less heterogeneous
